In brackets after ≈: the same amount, converted by molar mass.
Experiments:
S. aureus USA300∆pbp4 = assay: MIC testing, strain USA300∆pbp4; assay type: cell-based, Staphylococcus aureus; conditions: Staphylococcus aureus, USA300, read-out: Minimum inhibitory concentration
Method: (§1) The approach used was to initially search for compounds that reverse the antibiotic resistance profile of wild type cells to that of a pbp4 mutant. To define screening conditions three strains were employed, a wild type USA300 MRSA strain, an isogenic pbp4 deletion strain, and a complemented strain harboring a plasmid wildtype pbp4 copy. The antibiotic susceptibility profile of each strain was measured to determine the magnitude with which PBP4 affects resistance to various antibiotics (Table 1). […]. We anticipated that the greater dynamic range of the latter could provide a means to reliably screen for agents that inhibit PBP4 function. […].
(§2) S. aureus strain USA300 is a predominant cause of U.S. community-associated MRSA infections, whereas strain COL is a commonly studied hospital-associated MRSA strain. The S. aureus USA300 pbp4-null strain (USA300Δpbp4) and PBP4 complementation strain (USA300∆pbp4 pPBP4) have been previously described. Strain COLn is a laboratory derived tetracycline susceptible derivative of COL, whereas COLnex is a methicillin susceptible COLn derivative that has been cured of SCCmec thereby removing the mecA, which encodes PBP2a, and has been previously described. Strain CRB is a well-studied MRSA COLnex derivative that contains two amino acid substitutions (E183A and F241R) near the PBP4 active site and a 36-bp duplication 290-bp upstream of the pbp4 open reading frame leading to 20–40-fold overexpression of the gene. All strains were grown in Mueller Hinton (MH) broth at 37 °C, as indicated. Penicillin, streptomycin, ciprofloxacin, mupirocin, meropenem, and mitomycin C were purchased from Fisher Scientific (Waltham, MA, USA), whereas ceftobiprole was obtained from MedChemExpress LLC (Monmouth Junction, NJ, USA). The 30,000-member […]-EXP small molecule chemical library (Blocks 3–5) used in these studies was purchased from ChemBridge Corporation (San Diego, CA, USA).

S. aureus COLnex = assay: MIC testing, strain COLnex; assay type: cell-based; conditions: Staphylococcus aureus, read-out: Minimum inhibitory concentration
Method: (§3) To further evaluate their potential PBP4 inhibitor activity, prioritized compounds were tested for their ability to reverse PBP4 mediated antibiotic resistance in another S. aureus background using three isogenic strains that became available during our study (generous gift from Dr. S. Chatterjee; University of Maryland). These strains included: (1) COLnex, which is a methicillin susceptible strain, (2) CRB, a methicillin/ceftobiprole-resistant strain of COLnex that overproduces PBP4, and (3) CRB∆pbp4, a methicillin susceptible strain of CRB lacking the pbp4 gene.
as §2

S. aureus CRB = assay: MIC testing, strain CRB (PBP4 overproducer); assay type: cell-based, Staphylococcus aureus; conditions: for MIC: Staphylococcus aureus, read-out: Minimum inhibitory concentration, strain CRB
Method: as §3, §2

[1] = tested on: S. aureus USA300∆pbp4 pPBP4; assay: microbe, parasite or virus in culture; assay type: cell-based; conditions: Staphylococcus aureus, USA300, read-out: Minimum inhibitory concentration
S. aureus USA300 = assay: Minimum inhibitory concentration (MIC) testing, strain USA300; assay type: cell-based, Staphylococcus aureus; conditions: Staphylococcus aureus, USA300, read-out: Minimum inhibitory concentration
Method: as §1, §2

S. aureus CRB∆pbp4 = assay: MIC testing, strain CRB∆pbp4; assay type: cell-based; conditions: Staphylococcus aureus, read-out: Minimum inhibitory concentration
Method: as §3, §2

[2] = tested on: S. aureus strain CRB∆pbp4; assay: Fractional inhibitory concentration checkerboard, ceftobiprole + putative PBP4 inhibitor, strain CRB∆pbp4; assay type: cell-based, Staphylococcus aureus; conditions: Staphylococcus aureus, read-out: CRB∆pbp4 Alone BPR (ceftobiprole MIC alone)
S. aureus strain USA300 = assay: microbe, parasite or virus in culture; assay type: cell-based; conditions: Staphylococcus aureus, USA300, read-out: Ceftobiprole resistance (MIC) without compound
Method: (§4) Fractional inhibitory testing was performed in checkerboard format to determine whether putative PBP4 inhibitors potentiated the antimicrobial effects of β-lactams toward S. aureus strains USA300 and CRB, as previously described. To do so, in triplicate 10^5 CFU of each strain (10 µL) was added to individual wells of a microtiter plate containing 90 µL MH media. […] Plates were incubated at 37 °C for 16–20 h and the lowest concentration of each test agent that inhibited bacterial growth alone or in combination was determined by the naked eye. The fractional inhibitory concentration (FIC) index was calculated using the formula: FIC of A (MIC of drug A in combination/MIC of drug A alone) + FIC B ([…]/MIC of drug B alone). A synergistic interaction was defined as a FICI value of less than 0.5, an additive interaction was defined as a FICI value between 0.5 and 1.0, an indifferent interaction was defined as a FICI value between 1.0 and 4.0, and an antagonistic interaction was defined as a FICI value of more than 4.0 [46].

S. aureus strain CRB = assay: Fractional inhibitory concentration checkerboard, ceftobiprole + putative PBP4 inhibitor, strain CRB; assay type: cell-based, Staphylococcus aureus; conditions: Staphylococcus aureus, read-out: CRB Alone BPR (ceftobiprole MIC alone)
Method: as §4

Compound	MIC (S. aureus USA300∆pbp4) [µg/mL]	MIC (S. aureus COLnex) [µg/mL]	MIC (S. aureus CRB) [µg/mL]	MIC [1] [µg/mL]	MIC (S. aureus USA300) [µg/mL]	MIC (S. aureus CRB∆pbp4) [µg/mL]	MIC [2] [µg/mL]	MIC (S. aureus strain USA300) [µg/mL]	Fold difference in ceftobiprole resistance (S. aureus CRB; PBP4-overexpressor CRB versus CRB∆pbp4) [fold]	MIC (S. aureus strain CRB) [µg/mL]
CN(C)c1ccc(O)c2c1C[C@H]1C[C@H]3[C@H](N(C)C)C(O)=C(C(N)=O)C(=O)[C@@]3(O)C(O)=C1C2=O [MIN, minocycline]	0.5 (≈ 1.09 µM)	0.5 (≈ 1.09 µM)	0.5 (≈ 1.09 µM)	0.5 (≈ 1.09 µM)	0.5 (≈ 1.09 µM)	0.5 (≈ 1.09 µM)	–	–	–	–
Nc1nc(/C(=N/O)C(=O)N[C@@H]2C(=O)N3C(C(=O)O)=C(/C=C4\CCN([C@@H]5CCNC5)C4=O)CS[C@H]23)ns1 [BPR, ceftobiprole]	0.25 (≈ 0.468 µM)	0.25 (≈ 0.468 µM)	128 (≈ 239 µM)	0.5 (≈ 0.935 µM)	0.5 (≈ 0.935 µM)	0.25 (≈ 0.468 µM)	0.25	1	512	128
C[C@H]1COc2c(N3CCN(C)CC3)c(F)cc3c(=O)c(C(=O)O)cn1c23 [LEV, levofloxacin]	0.5 (≈ 1.38 µM)	0.25 (≈ 0.692 µM)	0.5 (≈ 1.38 µM)	1 (≈ 2.77 µM)	1 (≈ 2.77 µM)	0.25 (≈ 0.692 µM)	–	–	–	–

Source: paper PMC9598407, “Identification of Staphylococcus aureus Penicillin Binding Protein 4 (PBP4) Inhibitors” (Antibiotics, 2022)
